From patent US20220267352A1, “RAPAMYCIN ANALOGS AND USES THEREOF” (Anakuria Therapeutics, Inc., priority 2021, published 2022)

Experiments:
[1] = system: p-p70 S6 Kinase (Thr389) in MCF-7 cells; assay: AlphaLISA Ultra pS6K1 assay; assay type: cell-based; details: Homo sapiens, 1.5 h; MCF7 cells, 90 min
How it was run: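 Phospho-S6K1 (Thr389) quantified by AlphaLISA Ultra read-out (2 h acceptor, then 2 h donor beads) in lysates of MCF-7 cells. Cells were plated 20–24 h before, refed 2 h, exposed to compounds for 90 min at 0.5% final DMSO, and lysates stored at −80 °C.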

[2] = system: pS6K1 T389 and pAkt S473 in PC3 cells; assay: Western blot based pS6K1 and pAKT assay at 24 and 48 hour timepoints; assay type: cell-based
Method: Example 57: Western Blot Based pS6K1 and pAKT Assay at 24 and 48 Hour Timepoints
Assay Protocol: • 1. Seed six well plate with 500,000 PC3 cells per well and incubate for 20˜24 hour. • 2. Add compounds into the cell plate. Incubate for 24 to 48 hours. • 4. Plate is placed on ice and the media is removed via aspiration. The wells are washed with 1 mL of 1x PBS and then fully aspirated. • 5. 110 μL of 1% Triton Lysis Buffer is added and each well is scraped vigorously. • 6. Cell homogenates are transferred to 1.5 mL eppendorf tubes on ice and spun down at 4° C. for 10 minutes at 10,000 rpm. • 7. Protein concentration of resulting cell lysates were quantified utilizing a Bradford assay and the samples run analyzed via Western blot on 4-12% Bis/Tris gels with 1×MES buffer. • 8. The gels were transferred onto membranes at 50V for 100 minutes, blocked with Odyssey Blocking buffer for 30 minutes then incubated overnight with primary antibody (pS6K1 T389 Rabbit or pAkt S473 Rabbit) overnight at 4° C. on a rotator. • 9. The membranes were washed 3× with TBS-T with a 5 minute incubation between each wash then incubated with secondary antibody (LiCor IRDye 800 Donkey Anti Rabbit) for at least 30 minutes. • 10. The membranes were washed 3× with TBS-T with a 5 minute incubation between each wash. • 11. The gels were then incubated for 5 minutes with PBS at room temperature then imaged using a Li-Cor.
Compounds that are not selective by comparing pS6K1 and pAKT IC50 by kinase assays are indicated by “NO” in the “mTORC1 selective @ 90 min” column of Table 4. […] Compounds that are not selective at the 24 hrs mark are indicated by “NO” in the “mTORC1 selective @ 24 hrs” column of Table 4. “N/A” stands for “not assayed” and “N/C” stands for “not calculated”.

| SMILES | IC50 [1] | mTORC1 selective @ 24 hrs [2] |
| --- | --- | --- |
| CO[C@@H]1C[C@H](C[C@@H](C)[C@@H]2CC(=O)[C@H](C)/C=C(\C)[C@@H](O)[C@@H](OC)C(=O)[C@H](C)C[C@H](C)/C=C/C=C/C=C(\C)[C@@H](OCCOC3COC3)C[C@@H]3CC[C@@H](C)[C@@](O)(O3)C(=O)C(=O)N3CCCC[C@H]3C(=O)O2)CC[C@H]1OCCCN1CCOCC1 [I-14, (27E,29E,31E,32E,39R,40S,41R,42R,44S,46S,48S,49S,51R,52R,61R)-51,61-dihydroxy-52-methoxy-49-[(1R)-2-[(1S,3R,4R)-3-methoxy-4-(3-morpholinopropoxy)cyclohexyl]-1-methyl-ethyl]-39,40,41,42,53,54-hexamethyl-48-[2-(oxetan-3-yloxy)ethoxy]-73,74-dioxa-63-azatricyclohexatriaconta-27,29,31(53),32(54)-tetraene-55,56,57,58,59-pentone] | < 1 nM | Yes |
| COCCOCCO[C@H]1C[C@@H]2CC[C@@H](C)[C@@](O)(O2)C(=O)C(=O)N2CCCC[C@H]2C(=O)O[C@H]([C@H](C)C[C@@H]2CC[C@@H](O)[C@H](OC)C2)CC(=O)[C@H](C)/C=C(\C)[C@@H](OC)[C@@H](OC)C(=O)[C@H](C)C[C@H](C)/C=C/C=C/C=C/1C [I-49, (23E,25E,27E,28E,34R,35S,36R,37R,39S,41S,43S,44S,45R,46R,55R)-55-hydroxy-44-[(1R)-2-[(1S,3R,4R)-4-hydroxy-3-methoxy-cyclohexyl]-1-methyl-ethyl]-45,46-dimethoxy-43-[2-(2-methoxyethoxy)ethoxy]-34,35,36,37,47,48-hexamethyl-64,65-dioxa-56-azatricyclohexatriaconta-23,25,27(47),28(48)-tetraene-49,50,51,52,53-pentone] | 1 to 10 nM | Yes |
| CO[C@@H]1/C(C)=C/[C@@H](C)C(=O)C[C@@H]([C@H](C)C[C@@H]2CC[C@@H](OCCCO)[C@H](OC)C2)OC(=O)[C@@H]2CCCCN2C(=O)C(=O)[C@]2(O)O[C@@H](CC[C@H]2C)C[C@H](OCCOC2COC2)/C(C)=C/C=C/C=C/[C@@H](C)C[C@@H](C)C(=O)[C@@H]1OC [I-45, (23E,25E,27E,28E,35R,36S,37R,38R,40S,42S,44S,45S,47R,48R,57R)-47,57-dihydroxy-45-[(1R)-2-[(1S,3R,4R)-4-(3-hydroxypropoxy)-3-methoxy-cyclohexyl]-1-methyl-ethyl]-48-methoxy-35,36,37,38,49,50-hexamethyl-44-[2-(oxetan-3-yloxy)ethoxy]-68,69-dioxa-58-azatricyclohexatriaconta-23,25,27(49),28(50)-tetraene-51,52,53,54,55-pentone] | < 1 nM | Yes |
| CO[C@@H]1/C(C)=C/[C@@H](C)C(=O)C[C@@H]([C@H](C)C[C@@H]2CC[C@@H](OCCO)[C@H](OC)C2)OC(=O)[C@@H]2CCCCN2C(=O)C(=O)[C@]2(O)O[C@@H](CC[C@H]2C)C[C@H](OCCOCCOC2COC2)/C(C)=C/C=C/C=C/[C@@H](C)C[C@@H](C)C(=O)[C@@H]1OC [I-62, (1R,9S,12S,15R,16E,18R,19R,21R,23S,24E,26E,28E,30S,32S,35R)-1-hydroxy-12-[(1R)-2-[(1S,3R,4R)-4-(2-hydroxyethoxy)-3-methoxy-cyclohexyl]-1-methyl-ethyl]-18,19-dimethoxy-15,17,21,23,29,35-hexamethyl-30-[2-[2-(oxetan-3-yloxy)ethoxy]ethoxy]-11,36-dioxa-4-azatricyclo[30.3.1.0^4,9]hexatriaconta-16,24,26,28-tetraene-2,3,10,14,20-pentone] | 100 to 1000 nM | No |
| CO[C@@H]1C[C@H](C[C@@H](C)[C@@H]2CC(=O)[C@H](C)/C=C(\C)[C@@H](O)[C@@H](OC)C(=O)[C@H](C)C[C@H](C)/C=C/C=C/C=C(\C)[C@@H](OCCOC3COC3)C[C@@H]3CC[C@@H](C)[C@@](O)(O3)C(=O)C(=O)N3CCCC[C@H]3C(=O)O2)CC[C@H]1OC(=O)NCCN1CCOCC1 [I-21, [(42S,44R,46R)-4-[(2R)-2-[(27E,29E,31E,32E,38R,39S,40R,41R,43S,45S,47S,48S,50R,51R,61R)-50,61-dihydroxy-51-methoxy-38,39,40,41,52,53-hexamethyl-47-[2-(oxetan-3-yloxy)ethoxy]-54,55,56,57,58-pentaoxo-75,76-dioxa-64-azatricyclohexatriaconta-27,29,31(52),32(53)-tetraen-48-yl]propyl]-46-methoxy-44-cyclohexyl] N-(2-morpholinoethyl)carbamate] | < 1 nM | Yes |

More lines, main results first:

| IC50 [1] | SMILES | mTORC1 selective @ 24 hrs [2] |
| --- | --- | --- |
| 1 to 10 nM | COCCO[C@@H]1CC[C@@H](C[C@@H](C)[C@@H]2CC(=O)[C@H](C)/C=C(\C)[C@@H](O)[C@@H](OC)C(=O)[C@H](C)C[C@H](C)/C=C/C=C/C=C(\C)[C@@H](OC[C@H]3COCCO3)C[C@@H]3CC[C@@H](C)[C@@](O)(O3)C(=O)C(=O)N3CCCC[C@H]3C(=O)O2)C[C@H]1OC [I-64, (1R,9S,12S,15R,16E,18R,19R,21R,23S,24E,26E,28E,30S,32S,35R)-30-[[(2R)-1,4-dioxan-2-yl]methoxy]-1,18-dihydroxy-19-methoxy-12-[(1R)-2-[(1S,3R,4R)-3-methoxy-4-(2-methoxyethoxy)cyclohexyl]-1-methyl-ethyl]-15,17,21,23,29,35-hexamethyl-11,36-dioxa-4-azatricyclo[30.3.1.0^4,9]hexatriaconta-16,24,26,28-tetraene-2,3,10,14,20-pentone] | Yes |
| 1 to 10 nM | COCCO[C@@H]1CC[C@@H](C[C@@H](C)[C@@H]2CC(=O)[C@H](C)/C=C(\C)[C@@H](O)[C@@H](OC)C(=O)[C@H](C)C[C@H](C)/C=C/C=C/C=C(\C)[C@@H](OC[C@@H]3COCCO3)C[C@@H]3CC[C@@H](C)[C@@](O)(O3)C(=O)C(=O)N3CCCC[C@H]3C(=O)O2)C[C@H]1OC [I-66, (1R,9S,12S,15R,16E,18R,19R,21R,23S,24E,26E,28E,30S,32S,35R)-30-[[(2S)-1,4-dioxan-2-yl]methoxy]-1,18-dihydroxy-19-methoxy-12-[(1R)-2-[(1S,3R,4R)-3-methoxy-4-(2-methoxyethoxy)cyclohexyl]-1-methyl-ethyl]-15,17,21,23,29,35-hexamethyl-11,36-dioxa-4-azatricyclo[30.3.1.0^4,9]hexatriaconta-16,24,26,28-tetraene-2,3,10,14,20-pentone] | Yes |
| 1 to 10 nM | COCCOCCO[C@H]1C[C@@H]2CC[C@@H](C)[C@@](O)(O2)C(=O)C(=O)N2CCCC[C@H]2C(=O)O[C@H]([C@H](C)C[C@@H]2CC[C@@H](OC(F)F)[C@H](OC)C2)CC(=O)[C@H](C)/C=C(\C)[C@@H](O)[C@@H](OC)C(=O)[C@H](C)C[C@H](C)/C=C/C=C/C=C/1C [I-4, (22E,24E,26E,27E,33R,34S,35R,36R,38S,40S,42S,43S,44R,45R,55R)-43-[(1R)-2-[(1S,3R,4R)-4-(difluoromethoxy)-3-methoxy-cyclohexyl]-1-methyl-ethyl]-44,55-dihydroxy-45-methoxy-42-[2-(2-methoxyethoxy)ethoxy]-33,34,35,36,46,47-hexamethyl-64,65-dioxa-56-azatricyclohexatriaconta-22,24,26(46),27(47)-tetraene-48,49,50,51,52-pentone] | Yes |
| 1 to 10 nM | COCCOCCO[C@H]1C[C@@H]2CC[C@@H](C)[C@@](O)(O2)C(=O)C(=O)N2CCCC[C@H]2C(=O)O[C@H]([C@H](C)C[C@@H]2CC[C@@H](OCCO)[C@H](OC)C2)CC(=O)[C@H](C)/C=C(\C)[C@@H](OC)[C@@H](OC)C(=O)[C@H](C)C[C@H](C)/C=C/C=C/C=C/1C [I-37, (23E,25E,27E,28E,36R,37S,38R,39R,41S,43S,45S,46S,47R,48R,57R)-57-hydroxy-46-[(1R)-2-[(1S,3R,4R)-4-(2-hydroxyethoxy)-3-methoxy-cyclohexyl]-1-methyl-ethyl]-47,48-dimethoxy-45-[2-(2-methoxyethoxy)ethoxy]-36,37,38,39,49,50-hexamethyl-66,67-dioxa-58-azatricyclohexatriaconta-23,25,27(49),28(50)-tetraene-51,52,53,54,55-pentone] | Yes |
| ≥ 1000 nM | COCCO[C@@H]1CC[C@@H](C[C@@H](C)[C@@H]2CC(=O)[C@H](C)/C=C(\C)[C@@H](OC)[C@@H](OC)C(=O)[C@H](C)C[C@H](C)/C=C/C=C/C=C(\C)[C@@H](OCCOCCOC3COC3)C[C@@H]3CC[C@@H](C)[C@@](O)(O3)C(=O)C(=O)N3CCCC[C@H]3C(=O)O2)C[C@H]1OC [I-69, (1R,9S,12S,15R,16E,18R,19R,21R,23S,24E,26E,28E,30S,32S,35R)-1-hydroxy-18,19-dimethoxy-12-[(1R)-2-[(1S,3R,4R)-3-methoxy-4-(2-methoxyethoxy)cyclohexyl]-1-methyl-ethyl]-15,17,21,23,29,35-hexamethyl-30-[2-[2-(oxetan-3-yloxy)ethoxy]ethoxy]-11,36-dioxa-4-azatricyclo[30.3.1.0^4,9]hexatriaconta-16,24,26,28-tetraene-2,3,10,14,20-pentone] | No |
